From patent US20100317850A1 (priority 2008, published 2010)

System: Aβ42 production
Test: Quantification of Aβ peptide in culture of neurons from rat fetus brain (Aβ ELISA)
Format: cell-based
Conditions: Neuron, 72 h; rat primary neuronal culture (cerebral cortex, embryonic day 18 Wistar rats); medium collected three days after addition of the compound; Aβx-42 ELISA; read-out: Aβ42 production reducing effect IC50
Summary of the method: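 Primary cortical neurons from embryonic day 18 Wistar rats were cultured 4 days, then exposed to compound in Neurobasal/B27 without 2-ME, final DMSO ≤1%. After three days, medium was collected and Aβx-42 measured undiluted by sandwich ELISA.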

Row | Compound | IC50 [nM]
1 | NC1=N[C@@]2(c3cc(NC(=O)c4ccc(OC(F)F)cn4)ccc3F)CCC[C@H]2CS1 (single isomer, unassigned) [Example 175, N-[3-((4aR*,7aS*)-2-amino-4a,5,6,7-tetrahydro-4H-cyclopenta[d][1,3]thiazin-7a-yl)-4-fluorophenyl]-5-difluoromethoxypyridine-2-carboxamide] | 9
2 | NC1=N[C@@]2(c3cc(NC(=O)c4ncc(Br)cn4)ccc3F)CCC[C@H]2CS1 (single isomer, unassigned) [Example 176, N-[3-((4aR*,7aS*)-2-amino-4a,5,6,7-tetrahydro-4H-cyclopenta[d][1,3]thiazin-7a-yl)-4-fluorophenyl]-5-bromopyrimidine-2-carboxamide] | 10
3 | COc1cnc(C(=O)Nc2ccc(F)c([C@]34CCC[C@H]3CSC(N)=N4)c2)cn1 (single isomer, unassigned) [Example 177, N-[3-((4aR*,7aS*)-2-amino-4a,5,6,7-tetrahydro-4H-cyclopenta[d][1,3]thiazin-7a-yl)-4-fluorophenyl]-5-methoxypyrazine-2-carboxamide] | 18
4 | NC1=N[C@@]2(c3cc(NC(=O)c4cnc(OCC(F)(F)F)cn4)ccc3F)CCC[C@H]2CS1 (single isomer, unassigned) [Example 178, N-[3-((4aR*,7aS*)-2-amino-4a,5,6,7-tetrahydro-4H-cyclopenta[d][1,3]thiazin-7a-yl)-4-fluorophenyl]-5-(2,2,2-trifluoroethoxy)-pyrazine-2-carboxamide] | 44
5 | NC1=N[C@@]2(c3cc(NC(=O)c4ccc(OCC(F)(F)F)cn4)ccc3F)CCC[C@H]2CS1 (single isomer, unassigned) [Example 179, N-[3-((4aR*,7aS*)-2-amino-4a,5,6,7-tetrahydro-4H-cyclopenta[d][1,3]thiazin-7a-yl)-4-fluorophenyl]-5-(2,2,2-trifluoroethoxy)-pyridine-2-carboxamide] | 98
6 | NC1=N[C@@]2(c3cc(NC(=O)c4ncc(Cl)cc4Cl)ccc3F)CCC[C@H]2CS1 (single isomer, unassigned) [Example 180, N-[3-((4aR*,7aS*)-2-amino-4a,5,6,7-tetrahydro-4H-cyclopenta[d][1,3]thiazin-7a-yl)-4-fluorophenyl]-3,5-dichloropyridine-2-carboxamide] | 3
7 | NC1=N[C@@]2(c3cc(NC(=O)c4cnc(OCC(F)F)cn4)ccc3F)CCC[C@H]2CS1 (single isomer, unassigned) [Example 181, N-[3-((4aR*,7aS*)-2-amino-4a,5,6,7-tetrahydro-4H-cyclopenta[d][1,3]thiazin-7a-yl)-4-fluorophenyl]-5-(2,2-difluoroethoxy)-pyrazine-2-carboxamide] | 47
8 | NC1=N[C@@]2(c3cc(NC(=O)c4ccc(OCC(F)F)cn4)ccc3F)CCC[C@H]2CS1 (single isomer, unassigned) [Example 182, N-[3-((4aR*,7aS*)-2-amino-4a,5,6,7-tetrahydro-4H-cyclopenta[d][1,3]thiazin-7a-yl)-4-fluorophenyl]-5-(2,2-difluoroethoxy)-pyridine-2-carboxamide] | 90
9 | NC1=N[C@@]2(c3cc(NC(=O)c4cnc(OCCF)cn4)ccc3F)CCC[C@H]2CS1 (single isomer, unassigned) [Example 183, N-[3-((4aR*,7aS*)-2-amino-4a,5,6,7-tetrahydro-4H-cyclopenta[d][1,3]thiazin-7a-yl)-4-fluorophenyl]-5-(2-fluoroethoxy)-pyrazine-2-carboxamide] | 28
10 | NC1=N[C@@]2(c3cc(NC(=O)c4ncc(C(F)(F)F)cc4Cl)ccc3F)CCC[C@H]2CS1 (single isomer, unassigned) [Example 184, N-[3-((4aR*,7aS*)-2-amino-4a,5,6,7-tetrahydro-4H-cyclopenta[d][1,3]thiazin-7a-yl)-4-fluorophenyl]-3-chloro-5-trifluoromethyl-pyridine-2-carboxamide] | 13
11 | NC1=N[C@@]2(c3cc(NC(=O)c4ncc(Cl)cc4Cl)ccc3F)CCOC[C@H]2CS1 (single isomer, unassigned) [Example 185, N-[3-((4aS*,8aS*)-2-amino-4a,5,7,8-tetrahydro-4H-6-oxa-3-thia-1-azanaphthalen-8a-yl)-fluorophenyl]-3,5-dichloropyridine-2-carboxamide] | 10
12 | NC1=N[C@@]2(c3cc(NC(=O)c4ccc(C(F)(F)F)cn4)ccc3F)CCOC[C@H]2CS1 (single isomer, unassigned) [Example 186, N-[3-((4aS*,8aS*)-2-amino-4a,5,7,8-tetrahydro-4H-6-oxa-3-thia-1-azanaphthalen-8a-yl)-fluorophenyl]-5-trifluoromethylpyridine-2-carboxamide] | 30
13 | NC1=N[C@@]2(c3cc(NC(=O)c4ccc(F)cn4)ccc3F)CCOC[C@H]2CS1 (single isomer, unassigned) [Example 187, N-[3-((4aS*,8aS*)-2-amino-4a,5,7,8-tetrahydro-4H-6-oxa-3-thia-1-azanaphthalen-8a-yl)-4-fluorophenyl]-5-fluoropyridine-2-carboxamide] | 54
14 | NC1=N[C@@]2(c3cc(NC(=O)c4ncc(F)cc4F)ccc3F)COC[C@H]2CS1 (single isomer, unassigned) [Example 188, N-[3-((4aS*,7aS*)-2-amino-4a,5-dihydro-4H-furo[3,4-d][1,3]thiazin-7a-yl)-4-fluorophenyl]-3,5-difluoropyridine-2-carboxamide] | 22
15 | NC1=N[C@@]2(c3cc(NC(=O)c4ncc(Cl)cc4Cl)ccc3F)COC[C@H]2CS1 (single isomer, unassigned) [Example 189, N-[3-((4aS*,7aS*)-2-amino-4a,5-dihydro-4H-furo[3,4-d][1,3]thiazin-7a-yl)-4-fluorophenyl]-3,5-dichloropyridine-2-carboxamide] | 8
16 | NC1=N[C@@]2(c3cc(NC(=O)c4ccc(C(F)F)cn4)ccc3F)COC[C@H]2CS1 (single isomer, unassigned) [Example 190, N-[3-((4aS*,7aS*)-2-amino-4a,5-dihydro-4H-furo[3,4-d][1,3]thiazin-7a-yl)-4-fluorophenyl]-5-difluoromethylpyridine-2-carboxamide] | 12
17 | NC1=N[C@@]2(c3cc(NC(=O)c4cnc(C(F)F)cn4)ccc3F)CCC[C@H]2CS1 (single isomer, unassigned) [Example 191, N-[3-((4aR*,7aS*)-2-amino-4a,5,6,7-tetrahydro-4H-cyclopenta[d][1,3]thiazin-7a-yl)-4-fluorophenyl]-5-difluoromethylpyrazine-2-carboxamide] | 9
18 | NC1=N[C@@]2(c3cc(NC(=O)c4ccc(Br)cn4)ccc3F)CCCCC[C@H]2CS1 (single isomer, unassigned) [Example 249, N-[3-((4aR*,9aS*)-2-amino-4a,5,6,7,8,9-hexahydro-4H-cyclohepta[d][1,3]thiazin-9a-yl)-4-fluroophenyl]-5-bromopyridine-2-carboxamide] | 18
19 | NC1=N[C@@]2(c3cc(NC(=O)c4ccc(C(F)(F)F)cn4)ccc3F)CCCCC[C@H]2CS1 (single isomer, unassigned) [Example 250, N-[3-((4aR*,9aS*)-2-amino-4a,5,6,7,8,9-hexahydro-4H-cyclohepta[d][1,3]thiazin-9a-yl)-4-fluorophenyl]-5-trifluoromethylpyridine-2-carboxamide] | 27
20 | NC1=N[C@@]2(c3cc(NC(=O)c4ccc(F)cn4)ccc3F)CCCC[C@H]2CS1 (single isomer, unassigned) [Example 256, N-[3-((4aR*,8aS*)-2-amino-4,4a,5,6,7,8-hexahydrobenzo[d][1,3]thiazin-8a-yl)-4-fluorophenyl]-5-fluoropyridine-2-carboxamide] | 38
21 | NC1=N[C@@]2(c3cc(NC(=O)c4ncc(Cl)cc4Cl)ccc3F)CCCC[C@H]2CS1 (single isomer, unassigned) [Example 257, N-[3-((4aR*,8aS*)-2-amino-4,4a,5,6,7,8-hexahydrobenzo[d][1,3]thiazin-8a-yl)-4-fluorophenyl]-3,5-dichloropyridine-2-carboxamide] | 17
22 | COC[C@H]1C[C@]2(c3cc(NC(=O)c4cnc(OCF)cn4)ccc3F)N=C(N)SC[C@@H]2CO1 [Example 38, N-[3-((4aS,7R,8aS)-2-amino-7-methoxymethyl-4a,5,7,8-tetrahydro-4H-6-oxa-3-thia-1-azanaphthalen-8a-yl)-4-fluorophenyl]-5-fluoromethoxypyrazine-2-carboxamide] | 6
23 | COC[C@H]1C[C@]2(c3cc(NC(=O)c4ccc(C#N)cn4)ccc3F)N=C(N)SC[C@@H]2CO1 [Example 39, N-[3-((4aS,7R,8aS)-2-amino-7-methoxymethyl-4a,5,7,8-tetrahydro-4H-6-oxa-3-thia-1-azanaphthalen-8a-yl)-4-fluorophenyl]-5-cyanopyridine-2-carboxamide] | 7
24 | COC[C@H]1C[C@]2(c3cc(NC(=O)c4cnc(C(F)F)cn4)ccc3F)N=C(N)SC[C@@H]2CO1 [Example 40, N-[3-((4aS,7R,8aS)-2-amino-7-methoxymethyl-4a,5,7,8-tetrahydro-4H-6-oxa-3-thia-1-azanaphthalen-8a-yl)-4-fluorophenyl]-5-difluoromethylpyrazine-2-carboxamide] | 26
25 | NC1=N[C@@]2(c3cc(NC(=O)c4cnc(OCF)cn4)ccc3F)C[C@H](CF)OC[C@H]2CS1 [Example 41, N-[3-((4aS,7R,8aS)-2-amino-7-fluoromethyl-4a,5,7,8-tetrahydro-4H-6-oxa-3-thia-1-azanaphthalen-8a-yl)-4-fluorophenyl]-5-fluoromethoxypyrazine-2-carboxamide] | 6
26 | N#Cc1ccc(C(=O)Nc2ccc(F)c([C@]34C[C@H](CF)OC[C@H]3CSC(N)=N4)c2)nc1 [Example 42, N-[3-((4aS,7R,8aS)-2-amino-7-fluoromethyl-4a,5,7,8-tetrahydro-4H-6-oxa-3-thia-1-azanaphthalen-8a-yl)-4-fluorophenyl]-5-cyanopyridine-2-carboxamide] | 4
